This is an account of results in ChEMBL document CHEMBL6096640, “Discovery of novel thiosemicarbazone-acridine targeting butyrylcholinesterase with antioxidant, metal complexing and neuroprotector abilities as potential treatment of Alzheimer's disease: In vitro, in vivo, and in silico studies” (Eur J Med Chem, 2025).

Active and inactive are the calls of the source. The calls are words filed in the database; no cut-off is given here.

For series [1], the target named is Cholinesterase (Equus caballus) (UniProt P81908). The series is described as follows: Inhibition of equine serum BChE using butyrylthiocholine iodide as substrate at 10 uM preincubated for 10 mins followed by substrate addition by Ellman's method relative to control. Background: In Ellman's method for cholinesterases, released thiocholine reacts with DTNB.
Chain of Cholinesterase (Equus caballus) (P81908 whole entry): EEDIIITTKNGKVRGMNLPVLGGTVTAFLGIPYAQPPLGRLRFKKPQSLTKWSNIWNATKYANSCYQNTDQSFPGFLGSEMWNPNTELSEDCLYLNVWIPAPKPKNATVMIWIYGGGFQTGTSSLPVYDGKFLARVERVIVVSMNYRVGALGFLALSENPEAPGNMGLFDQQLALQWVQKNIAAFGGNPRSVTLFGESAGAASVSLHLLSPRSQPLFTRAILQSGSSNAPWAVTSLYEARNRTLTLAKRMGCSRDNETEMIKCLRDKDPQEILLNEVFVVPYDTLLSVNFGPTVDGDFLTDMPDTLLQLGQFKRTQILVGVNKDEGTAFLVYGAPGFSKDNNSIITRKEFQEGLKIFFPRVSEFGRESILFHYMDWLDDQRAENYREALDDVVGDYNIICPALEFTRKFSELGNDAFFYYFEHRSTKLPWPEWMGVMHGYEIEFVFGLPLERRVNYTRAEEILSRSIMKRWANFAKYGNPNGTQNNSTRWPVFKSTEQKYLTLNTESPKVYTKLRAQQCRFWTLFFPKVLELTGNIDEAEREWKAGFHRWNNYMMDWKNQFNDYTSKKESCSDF
Series [2] concerns the target T1, Acetylcholinesterase (Electrophorus electricus, UniProt O42275).
Description: Inhibition of electric eel AChE using acetylthiocholine iodide as substrate preincubated for 10 mins followed by substrate addition by Ellman's method
In series [3] the target is T2, Cholinesterase (Equus caballus, UniProt P81908).
T2 sequence (P81908 whole entry): as above
Description: Inhibition of equine serum BChE using butyrylthiocholine iodide as substrate preincubated for 10 mins followed by substrate addition by Ellman's method
Series [4] in a line: Neurotoxicity against human SH-SY5Y cells assessed as reduction in cell viability at <= 50 uM. In kind it is toxicity, cell-based.
Series [5] in a line: Antioxidant activity of the compound assessed as DPPH radical scavenging activity at 100 uM incubated under light for 30 mins by spectrophotometric analysis relative to control. The class given is functional. On the technique in general: Loss of DPPH colour is used to gauge radical scavenging.
A short description of another series: in vitro. The conditions noted are these: human.
In series [6] the target is Acetylcholinesterase (Electrophorus electricus) (UniProt O42275). The series is described as follows: Non-competitive inhibition of electric eel AChE using acetylthiocholine iodide as substrate assessed as decreased Vmax with constant Km by Ellman's method based Lineweaver-Burk plot analysis.
Chain of Acetylcholinesterase (Electrophorus electricus) (O42275 24-633 limits assumed): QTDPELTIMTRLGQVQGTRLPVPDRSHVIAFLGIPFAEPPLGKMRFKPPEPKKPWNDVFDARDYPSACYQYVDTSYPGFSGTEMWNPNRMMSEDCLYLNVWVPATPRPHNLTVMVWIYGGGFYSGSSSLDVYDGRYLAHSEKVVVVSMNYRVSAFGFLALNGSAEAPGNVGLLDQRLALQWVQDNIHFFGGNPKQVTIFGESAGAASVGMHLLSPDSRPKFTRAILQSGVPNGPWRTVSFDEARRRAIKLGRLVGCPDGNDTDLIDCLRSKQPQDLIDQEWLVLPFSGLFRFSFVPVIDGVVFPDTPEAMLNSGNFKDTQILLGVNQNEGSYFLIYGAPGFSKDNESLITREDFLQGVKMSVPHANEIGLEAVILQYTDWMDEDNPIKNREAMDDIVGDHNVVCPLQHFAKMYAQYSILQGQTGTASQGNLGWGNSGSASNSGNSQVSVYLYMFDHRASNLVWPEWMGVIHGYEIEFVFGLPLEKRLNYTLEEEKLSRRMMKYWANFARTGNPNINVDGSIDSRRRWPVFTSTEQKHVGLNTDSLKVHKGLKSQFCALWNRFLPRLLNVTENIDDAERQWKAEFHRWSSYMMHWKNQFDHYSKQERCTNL
For series [7], the target named is T2, Cholinesterase. Briefly: Competitive inhibition of equine serum BChE using butyrylthiocholine iodide as substrate preincubated for 10 mins followed by substrate addition by Lineweaver-Burk plot analysis.
The target in series [8] is T1, Acetylcholinesterase. The series is described as follows: Non-competitive inhibition of electric eel AChE using acetylthiocholine iodide as substrate preincubated for 10 mins followed by substrate addition by Lineweaver-Burk plot analysis.
Series [9] deals with T2, Cholinesterase. The series is described as follows: Non-competitive inhibition of equine serum BChE using butyrylthiocholine iodide as substrate preincubated for 10 mins followed by substrate addition by Lineweaver-Burk plot analysis.
The target of series [10] is Cholinesterase (Equus caballus) (UniProt P81908). The series is described as follows: Mixed-type inhibition of equine serum BChE using butyrylthiocholine iodide as substrate assessed as decrease in Vmax with increase in Km preincubated for 10 mins followed by substrate addition by Lineweaver-Burk plot analysis.
Series [11] deals with T1, Acetylcholinesterase. The series is described as follows: Competitive inhibition of electric eel AChE using acetylthiocholine iodide as substrate at 11 uM preincubated for 10 mins followed by substrate addition by Lineweaver-Burk plot analysis.
For series [12], the target named is Acetylcholinesterase (Electrophorus electricus) (UniProt O42275). The series is described as follows: Mixed-type inhibition of electric eel AchE using acetylthiocholine iodide as substrate assessed as decrease in Vmax with increase in Km preincubated for 10 mins followed by substrate addition by Lineweaver-Burk plot analysis.
Series [13] addresses T2, Cholinesterase. The series is described as follows: Competitive inhibition of equine serum BChE using butyrylthiocholine iodide as substrate at 3 uM preincubated for 10 mins followed by substrate addition by Lineweaver-Burk plot analysis.
In series [14] the target is Acetylcholinesterase (Electrophorus electricus) (UniProt O42275). Briefly: Inhibition of electric eel AChE using acetylthiocholine iodide as substrate at 10 uM preincubated for 10 mins followed by substrate addition by Ellman's method relative to control.
Series [15] can be described thus: Neurotoxicity against human SH-SY5Y cells assessed as cell viability at 12.5 to 50 uM relative to control. In kind it is toxicity, cell-based. To be noted: dose 12.5-50 µM, read-out: Activity.
The test system of series [16] is Mus musculus. Briefly: Antialzheimer activity against scopolamine-induced amnesia Swiss mouse model assessed as number of crossings at 1 uM, icv by open field test. The class given is functional, organism-based.
Series [17] deals with Mus musculus. The series is described as follows: Antialzheimer activity against scopolamine-induced amnesia Swiss mouse model assessed as sign of innate preference for objects at 1 uM, icv by novel object recognition test. The class given is functional, organism-based.
In a further series the test system is SH-SY5Y. Briefly: Neuroprotective activity against H2O2-induced cell death in human SH-SY5Y cells assessed as cell viability at 3.125 to 12.5 uM preincubated for 24 hrs followed by H2O2 addition and measured after 2 hrs by MTT assay. In kind it is functional, cell-based. The conditions noted are these: dose 3.125-12.5 µM, time 26.0 hrs. Background: Tetrazolium assays rely on reduction of a dye to a coloured formazan, in cell work by metabolically active cells.

The nature of series [18]: Toxicity in Swiss mouse assessed as novel […] memory at 1 uM, icv by novel object recognition test. To be noted: in vivo, icv_or_intrathecal.
The test system of series [19] is Mus musculus. The series is described as follows: Antialzheimer activity against scopolamine-induced amnesia Swiss mouse model assessed as increase in exploration time at 1 uM, icv by novel object recognition test. In kind it is functional, organism-based.
Series [20] can be described thus: Antioxidant activity of the compound assessed as DPPH radical scavenging activity at 10 uM incubated under light for 30 mins by spectrophotometric analysis relative to control. In kind it is functional.

T1 sequence (O42275 whole entry): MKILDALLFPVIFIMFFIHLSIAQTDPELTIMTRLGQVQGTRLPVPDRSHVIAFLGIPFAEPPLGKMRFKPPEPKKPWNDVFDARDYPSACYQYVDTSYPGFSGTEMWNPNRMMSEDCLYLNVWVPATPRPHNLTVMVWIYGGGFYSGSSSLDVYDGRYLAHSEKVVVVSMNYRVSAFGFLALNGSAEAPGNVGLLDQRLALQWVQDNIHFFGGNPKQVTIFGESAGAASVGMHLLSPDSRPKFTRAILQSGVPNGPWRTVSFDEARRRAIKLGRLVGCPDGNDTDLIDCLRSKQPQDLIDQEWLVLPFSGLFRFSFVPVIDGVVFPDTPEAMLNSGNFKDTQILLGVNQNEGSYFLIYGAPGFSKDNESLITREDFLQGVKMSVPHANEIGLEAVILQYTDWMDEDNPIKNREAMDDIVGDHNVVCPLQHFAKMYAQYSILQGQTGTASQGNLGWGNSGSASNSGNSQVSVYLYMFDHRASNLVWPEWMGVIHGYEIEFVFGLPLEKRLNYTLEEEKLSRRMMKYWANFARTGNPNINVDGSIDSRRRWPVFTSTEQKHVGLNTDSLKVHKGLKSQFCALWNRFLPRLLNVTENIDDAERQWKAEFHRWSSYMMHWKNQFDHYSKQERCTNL
Description for in vitro: Neurotoxicity against human SH-SY5Y cells assessed as cell viability at 50 uM relative to control

Usually inhibition stands for the percentage by which the read-out fell short of the control. A word on the IC50: it is the concentration at which inhibition is half-maximal. Read a low IC50 as higher potency. With `CN(C)c1ccc(/C=N/NC(=S)Nc2c3ccccc3nc3ccccc23)cc1`, the inhibition in series [1] turned out to be 83%. Also, the IC50 is 7.6 µM at Acetylcholinesterase [2] and 1.77 µM on Cholinesterase [3].

As to `COc1ccc(/C=N/NC(=S)Nc2c3ccccc3nc3ccccc23)cc1`, the inhibition in series [1] came out at 83%. Further, the Activity entry in series [4] is reported as “Non-toxic”. Also, the IC50 against Acetylcholinesterase [2] is 6.2 µM; at Cholinesterase [3] it was 1.04 µM.

As for `Oc1cccc(/C=N/NC(=S)Nc2c3c(nc4ccccc24)CCCC3)c1`, the Activity in [5] turned out to be 12.1%. This compound registered an IC50 at Cholinesterase [3] of 3.03 µM.

Consider `S=C(N/N=C/c1cccs1)Nc1c2ccccc2nc2ccccc12`, for which the Activity in series [5] was found to be 41.5%. Besides, the inhibition in [1] is 83%. Moreover, the IC50 was 34.6 µM against Acetylcholinesterase [2] and 2.45 µM against Cholinesterase [3].

Compound `COc1cc2c(cc1OC)C(=O)C(CC1CCN(Cc3ccccc3)CC1)C2` (stereo not drawn) [DONEPEZIL] gave a viability at 50 µM in the series “in vitro” (sh-sy5y) of 80%.

For the compound `Oc1ccccc1/C=N/NC(=S)Nc1c2ccccc2nc2ccccc12`, in [5], the Activity was determined as 15.8%. In addition, in series [1], the inhibition was 83%. For the same compound, the IC50 on Acetylcholinesterase [2] is 10.8 µM; on Cholinesterase [3], 3.13 µM.

As for `Cc1ccc(/C=N/NC(=S)Nc2c3ccccc3nc3ccccc23)cc1`, the inhibition in series [1] came out at 83%. The IC50 on Acetylcholinesterase [2] was 2.78 µM; at Cholinesterase [3], 1.54 µM.

With `S=C(N/N=C/c1ccc(Cl)cc1Cl)Nc1c2ccccc2nc2ccccc12`, the inhibition in series [1] came out at 83%. In addition, the Activity entry in series [4] is “Non-toxic”. The IC50 at Acetylcholinesterase [2] worked out at 6.11 µM; against Cholinesterase [3], 1.06 µM.

Usually Ki stands for the equilibrium dissociation constant of an inhibitor or competing ligand from its target. Read a high Ki as a looser hold on the target. With `O=[N+]([O-])c1ccc(/C=N/NC(=S)Nc2c3ccccc3nc3ccccc23)cc1`, the inhibition result in series [6] is “Active”. The figures for the Ki on Cholinesterase [7], at Acetylcholinesterase [8] and at Cholinesterase [9] were 0.2 µM, 2.97 µM and 0.53 µM, respectively. Further, the inhibition in series [1] amounted to 83%. Also, the Activity entry in series [4] is on record as “Non-toxic”. Moreover, the concentration for half-maximal inhibition (IC50) against Acetylcholinesterase [2] was found to be 8.64 µM; on Cholinesterase [3], 0.89 µM.

For `S=C(N/N=C/c1ccccc1)Nc1c2c(nc3ccccc13)CCCC2`, the outcome in series [10] and in series [12] was Active. Besides, the Ki at Acetylcholinesterase [11] came to 1.66 µM; at Acetylcholinesterase [8], 9.82 µM; on Cholinesterase [13] it was 1.41 µM; on Cholinesterase [9], 3.63 µM. The Activity in [5] turned out to be 32.2%. Besides, the IC50 on Acetylcholinesterase [2] amounted to 13.6 µM; against Cholinesterase [3], 5.38 µM.

On to `S=C(N/N=C/c1ccccc1)Nc1c2ccccc2nc2ccccc12`, for which the inhibition entry in [6] was “Active”. For the same compound, the Ki is 0.72 µM at Cholinesterase [7], 1.35 µM on Acetylcholinesterase [8] and 1.68 µM at Cholinesterase [9]. The inhibition in series [14] was determined as 87%; in series [1], 83%. Besides, the Activity was 37.9% in series [5] and “Non-toxic” in [4]. Also, the IC50 on Acetylcholinesterase [2] is 2.47 µM; at Cholinesterase [3], 0.71 µM.

Turning to `COc1ccc(/C=N/NC(=S)Nc2c3ccccc3nc3ccccc23)cc1O`, the Activity in series [5] is 41.2%. The same compound showed an inhibition in series [1] of 83%. In addition, the IC50 came out at 43.3 µM against Acetylcholinesterase [2] and 3.3 µM against Cholinesterase [3].

Regarding `Fc1ccc(/C=N/NC(=S)Nc2c3ccccc3nc3ccccc23)cc1`, the Activity in [5] stood at 44.3%. For the same compound, the inhibition in [1] turned out to be 83%. Also, the IC50 at Acetylcholinesterase [2] is 12.8 µM; on Cholinesterase [3], 1.35 µM. Besides, the viability at 50 µM in series [15] is at most 70%.

For the compound `CC(C)(C)c1cc(/C=N/NC(=S)Nc2c3ccccc3nc3ccccc23)cc(C(C)(C)C)c1O`, the Activity was 69% in series [5] and “Toxic” in series [18]. Besides, the inhibition in series [1] came out at 83%. Moreover, the outcome with Mus musculus [16] and with Mus musculus [17] was inactive. Also, the IC50 was found to be 10.5 µM against Acetylcholinesterase [2] and 1.15 µM against Cholinesterase [3]. Moreover, the result in the series with SH-SY5Y and in the series with Mus musculus [19] was Active. In addition, the viability at 50 µM in [15] was at most 70%; in the series “in vitro” (SH-SY5Y cells), 90%.

As to `S=C(N/N=C/c1ccco1)Nc1c2ccccc2nc2ccccc12`, the Activity in series [5] was 43.9%. Moreover, the inhibition in [1] is 83%. Also, the half-inhibitory concentration (IC50) at Acetylcholinesterase [2] worked out at 28 µM; against Cholinesterase [3], 4.4 µM.

Take `S=C(N/N=C/c1ccc(Br)cc1)Nc1c2ccccc2nc2ccccc12`: in [1], the inhibition is 83%. In addition, the IC50 on Acetylcholinesterase [2] came out at 9.79 µM; at Cholinesterase [3], 3.18 µM.

Take `Cc1ccc(/C=N/NC(=S)Nc2c3ccccc3nc3ccccc23)c(O)c1`: the Activity in series [5] stood at 28.7%. Also, the inhibition in series [1] was found to be 83%. For the same compound, the 50% inhibitory concentration (IC50) at Acetylcholinesterase [2] worked out at 11.3 µM; on Cholinesterase [3] it was 3.19 µM.

As to `O=c1c(O)c(-c2ccc(O)c(O)c2)oc2cc(O)cc(O)c12`, the Activity in series [20] amounted to 51.7%.

As for `S=C(N/N=C/c1ccc(Cl)cc1)Nc1c2ccccc2nc2ccccc12`, the inhibition in series [1] was 83%. Besides, the IC50 was found to be 10.1 µM against Acetylcholinesterase [2] and 2.19 µM at Cholinesterase [3].

Regarding `Cc1[nH]c2ccccc2c1/C=N/NC(=S)Nc1c2ccccc2nc2ccccc12`, in series [5], the Activity was 61%. This compound also came in with an inhibition in [1] of 83%. Moreover, the IC50 came to 8.57 µM against Acetylcholinesterase [2] and 2.01 µM against Cholinesterase [3].

For the compound `S=C(N/N=C/c1cccnc1)Nc1c2ccccc2nc2ccccc12`, in series [5], the Activity came to 15.5%. The compound further came in with an inhibition in series [1] of 83%.

As for `Oc1cccc(/C=N/NC(=S)Nc2c3ccccc3nc3ccccc23)c1`, in [1], the inhibition is 83%. The IC50 at Acetylcholinesterase [2] amounted to 22 µM; against Cholinesterase [3] it was 2.28 µM.

In turn, `Oc1ccc(/C=N/NC(=S)Nc2c3ccccc3nc3ccccc23)cc1` came in with an inhibition in [1] of 83%. In addition, the concentration for half-maximal inhibition (IC50) at Acetylcholinesterase [2] worked out at 11.5 µM; against Cholinesterase [3], 1.73 µM.

Turning to `S=C(N/N=C/c1c[nH]c2ccccc12)Nc1c2ccccc2nc2ccccc12`, the Activity in [5] stood at 23.8%. Further, the inhibition in series [1] worked out at 83%. The IC50 against Acetylcholinesterase [2] was 9.39 µM; at Cholinesterase [3] it was 1.68 µM.
